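Protocol summary: plate cells (96-well), add compound at 5 concentrations, incubate 48 h, interpolate endpoints linearly. Here, GI50 denotes the concentration required for 50% inhibition of growth.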 The source made the active and inactive calls. Rule as the data show it: active = GI50 up to about 1.1 µM and inactive = higher.
How the values were obtained:
Assay in all cases: growth of human tumour cells (NCI), 48 h
OVCAR-8 = system: OVCAR-8
UACC-62 = system: UACC-62
DU-145 = system: DU-145
SK-MEL-2 = system: SK-MEL-2
MDA-MB-231 = system: MDA-MB-231
HCC 2998 = system: HCC 2998
SK-OV-3 = system: SK-OV-3
MOLT-4 = system: MOLT-4
K562 = system: K562
MCF7 = system: MCF7
HOP-62 = system: HOP-62
OVCAR-3 = system: OVCAR-3
ACHN = system: ACHN
U-251 = system: U-251
NCI/ADR-RES = system: NCI/ADR-RES
A549 = system: A549
SF-295 = system: SF-295
NCI-H460 = system: NCI-H460
LOX IMVI = system: LOX IMVI
NCI-H522 = system: NCI-H522

Measured: GI50

CCN(CC)c1ccc(C2Nc3ccc4ccccc4c3C3=C2C(=O)CCC3)cc1 (stereo not given)
inactive: OVCAR-8 14.7 µM | UACC-62 24.7 µM | DU-145 23.9 µM | SK-MEL-2 35.5 µM | MDA-MB-231 11.7 µM | HCC 2998 > 100 µM | SK-OV-3 38.4 µM | MOLT-4 > 100 µM | K562 > 100 µM | MCF7 40.3 µM | HOP-62 20.4 µM | OVCAR-3 16.4 µM | ACHN 12.2 µM | U-251 14.9 µM | NCI/ADR-RES 26.6 µM | A549 26.7 µM | SF-295 24.6 µM | NCI-H460 > 100 µM

C[N+](C)(C)CC(=O)N/N=C\c1c(O)ccc2ccccc12
inactive: OVCAR-8 26.3 µM | UACC-62 28.2 µM | DU-145 23.8 µM | LOX IMVI 32.7 µM | NCI-H522 16.2 µM | SK-MEL-2 28.3 µM | MDA-MB-231 92.9 µM | SK-OV-3 34.8 µM | MOLT-4 9.08 µM | K562 31.9 µM | MCF7 59.7 µM | HOP-62 26.7 µM | OVCAR-3 35.9 µM | ACHN 32.7 µM | U-251 21.4 µM | NCI/ADR-RES 33.7 µM | A549 > 100 µM | SF-295 46.1 µM | NCI-H460 18.1 µM

O=C(c1ccccc1)c1ccc2[nH]c(-c3c(Cl)c(Cl)c(Cl)c(Cl)c3-c3nnc(-c4ccccc4)o3)nc2c1
inactive: OVCAR-8 58.1 µM | DU-145 70.5 µM | LOX IMVI 39.4 µM | NCI-H522 6.28 µM | SK-MEL-2 20 µM | MDA-MB-231 25.4 µM | SK-OV-3 50.8 µM | MOLT-4 14.8 µM | K562 4.67 µM | MCF7 9.79 µM | HOP-62 25.8 µM | OVCAR-3 13.8 µM | ACHN 69.7 µM | U-251 31.6 µM | NCI/ADR-RES 13.2 µM | A549 25.8 µM | SF-295 14.1 µM

NC(Cc1nnn[nH]1)C(=O)O (stereo not given)
inactive: OVCAR-8 > 100 µM | UACC-62 > 100 µM | DU-145 > 100 µM | LOX IMVI > 100 µM | NCI-H522 > 100 µM | SK-MEL-2 > 100 µM | MDA-MB-231 > 100 µM | SK-OV-3 > 100 µM | MOLT-4 > 100 µM | K562 > 100 µM | MCF7 > 100 µM | HOP-62 > 100 µM | OVCAR-3 > 100 µM | ACHN > 100 µM | U-251 > 100 µM | NCI/ADR-RES > 100 µM | A549 > 100 µM | SF-295 > 100 µM | NCI-H460 > 100 µM

CSC(=S)NN=C1CCCC1.CSC(=S)NN=C1CCCC1.[Zn+2]
inactive: OVCAR-8 14.4 µM | UACC-62 28.2 µM | DU-145 58.5 µM | LOX IMVI 10.7 µM | NCI-H522 15.7 µM | SK-MEL-2 22.7 µM | MDA-MB-231 17.8 µM | SK-OV-3 > 100 µM | MOLT-4 9.66 µM | K562 50.4 µM | MCF7 34.7 µM | HOP-62 28.3 µM | OVCAR-3 24.6 µM | ACHN 1.83 µM | U-251 8.93 µM | NCI/ADR-RES > 100 µM | A549 18.8 µM | SF-295 16.8 µM | NCI-H460 31.6 µM

CC(=O)NC1(C)CCC(C(C)(C)NC(C)=O)CC1 (stereo not given)
inactive: OVCAR-8 > 100 µM | UACC-62 > 100 µM | DU-145 > 100 µM | LOX IMVI > 100 µM | MDA-MB-231 > 100 µM | HCC 2998 > 100 µM | SK-OV-3 > 100 µM | MOLT-4 > 100 µM | K562 > 100 µM | MCF7 > 100 µM | HOP-62 > 100 µM | OVCAR-3 > 100 µM | ACHN > 100 µM | U-251 > 100 µM | NCI/ADR-RES > 100 µM | A549 > 100 µM | SF-295 > 100 µM | NCI-H460 > 100 µM

From ChEMBL document CHEMBL1201862, “PubChem BioAssay data set” (2004)
